Data taken from paper PMC6707612, “Cyclic-di-GMP binds to histidine kinase RavS to control RavS-RavR phosphotransfer and regulates the bacterial lifestyle transition between virulence and swimming” (PLoS Pathogens, 2019).
pEC50: −log10 of the molar value. Where “and” joins values, the source holds several entries; their conditions need not be identical. Equal entries are not always repeated.

Experiments:
RavS^ΔN = molecular target: T1, RavS^ΔN (Xanthomonas campestris pv. campestris, UniProt Q8P9A6); assay: in vitro RavS-RavR phosphotransfer assay (RavS~P level by autoradiography); assay type: biochemical
T1 sequence (Q8P9A6 352-697): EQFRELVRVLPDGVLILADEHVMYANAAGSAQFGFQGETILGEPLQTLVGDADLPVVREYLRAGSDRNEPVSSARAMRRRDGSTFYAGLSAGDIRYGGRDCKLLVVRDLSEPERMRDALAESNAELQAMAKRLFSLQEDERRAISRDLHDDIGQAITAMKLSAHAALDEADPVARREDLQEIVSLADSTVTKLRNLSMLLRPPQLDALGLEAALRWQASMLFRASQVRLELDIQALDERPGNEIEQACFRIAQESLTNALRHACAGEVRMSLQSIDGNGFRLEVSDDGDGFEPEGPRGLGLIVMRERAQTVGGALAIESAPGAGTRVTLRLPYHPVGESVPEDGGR
Method: (a) c-di-GMP enhances RavS-RavR phosphotransfer in vitro. A total of 5 μM RavS^ΔN was autophosphorylated for 15 min by the addition of 10 μCi [γ-^32P]ATP. A total of 15 μM RavR^ΔEAL or RavR^ΔEAL(D496A) was added and incubated for 30 min at 25°C. A total of 100 μM c-di-GMP was added if necessary. The reactions were terminated with 5× SDS loading buffer before autoradiography. The experiment was repeated three times. (b) Time course analyses of the impact of c-di-GMP on the velocity of RavS-RavR phosphotransfer. The autophosphorylation and phosphotransfer reactions were set as mentioned in (a). Various concentrations of c-di-GMP were added to the reactions and isotopic signals (band intensities) of RavS~P were measured after autoradiography. (c–d) c-di-GMP triggered an increase in RavS-RavR phosphotransfer in a dose-dependent manner. (c) Various concentrations of c-di-GMP (0, 5, 10, 15, 30, 50, 75 and 100 μM) were added to the RavS-RavR phosphotransfer reactions. (d) The phosphorylated level of RavS^ΔN~P was quantified by ImageJ and the EC50 value was estimated by Origin 8.5 software. In (b) and (d), the intensity of each data point is the average from three experimental repeats. (e) c-di-GMP triggered increase in RavS-RavR phosphotransfer is highly specific. […] (f) RavS specifically interacts with fl-c-di-GMP. The interaction between RavS^ΔTrM and various nucleotides, including fl-c-di-GMP, fl-cGMP and fl-c-di-AMP, were measured by microscale thermophoresis (MST). A total of 20 nM fluorescein-labelled nucleotides and increasing concentrations of proteins were incubated and measured by MST. The dissociation constant (Kd) was quantified to estimate the binding affinity. Each experiment was repeated three times.
An in vitro autophosphorylation assay was conducted as described in our previous study. Purified protein was incubated with 10 μM ATP containing 10 μCi [γ-^32P]ATP (PerkinElmer, USA) in the reaction buffer (50 mM Tris-HCl, pH 7.8, 25 mM NaCl, 25 mM KCl, 5 mM MgCl2, 2 mM DTT) for the indicated time at 28°C. If necessary, c-di-GMP was added to the mixture at the same time as ATP. For the phosphoryl transfer assay, purified RR protein or its derivative was added into the reaction mixture containing the phosphorylated HK. The autophosphorylation or phosphoryl transfer reaction was terminated by adding 5× SDS-PAGE loading buffer. Phosphorylated proteins were separated by 12% SDS-PAGE. After electrophoresis, gels were exposed to a phosphor screen (GE Healthcare) and the autoradiographic signals were detected by a Typhoon FLA7000 (GE Healthcare).

RavS^ΔN(R656A) = assay: in vitro phosphotransfer assay with Arg656-substituted RavS; assay type: biochemical, Xanthomonas campestris pv. campestris; conditions: 15 or 100 μM c-di-GMP
Method: Fig 6 Arg^656 in the CA domain of RavS is a key residue for c-di-GMP binding. (a, b) c-di-GMP binds to the DHp-CA domain of RavS. PAS-A, PAS-B and DHp-CA in (a), and DHp and CA domains of RavS in (b), were purified and the interaction with c-di-GMP was measured by MST. Each assay was repeated three times. Standard deviations are shown. (c) Molecular docking model of the interaction between c-di-GMP and DHp-CA of RavS. c-di-GMP is shown as a ball-and-stick model and DHp-CA is shown in ribbon representation. (d) Schematic view of the predicted docking site between c-di-GMP and DHp-CA. Potential hydrogen bonds are indicated as blue dashed lines. Autodock software was used to predict the interaction. […] Ten recombinant proteins of the DHp-CA region, each containing a substitution of a putative essential residue involved in c-di-GMP binding, were used in the MST assay to quantify the Kd value of RavS–c-di-GMP binding. fl-c-di-GMP was used in the MST assay. […] The reactions were terminated with 5× SDS loading buffer and the products were separated by 12% SDS-PAGE, exposed to a phosphor screen and analysed by Typhoon FLA7000. […]
An in vitro autophosphorylation assay was conducted as described in our previous study. […] After electrophoresis, gels were exposed to a phosphor screen (GE Healthcare) and the autoradiographic signals were detected by a Typhoon FLA7000 (GE Healthcare).

Question: `Nc1nc2c(ncn2[C@@H]2O[C@@H]3COP(=O)(O)O[C@H]4[C@@H](O)[C@H](n5cnc6c(=O)[nH]c(N)nc65)O[C@@H]4COP(=O)(O)O[C@H]3[C@H]2O)c(=O)[nH]1` [c-di-GMP, Cyclic di-GMP] was tested. Which pEC50 (RavS^ΔN; 5 μM RavS^ΔN, 15 μM RavR^ΔEAL, 30 min at 25°C, RavS^ΔN~P level quantified by ImageJ, read-out: median effect concentration (EC50) on RavS-RavR phosphotransfer) did it give?
Answer: The pEC50 was 4.81 and ~4.81.

Question: What about the “T50: time that signal intensity of RavS~P decreased to half of the initiation stage” value (RavS^ΔN; 15 μM c-di-GMP present, without c-di-GMP 38.2 min) of the same molecule?
Answer: The value was 16.9 min.

Question: And the “stimulation of phosphotransferase activity of RavS^ΔN(R656A)~P towards RavR^ΔEAL” value (RavS^ΔN(R656A))?
Answer: The value was “failed to stimulate”.
